From US6190664A, “Depigmenting cosmetic skin-care composition and use thereof” (C 3 D, priority 1995, dated 2001)

Test system: Tyrosinase
Assay: In vitro inhibition of tyrosinase (Dopachrome at 475 nm, substrate L-Dopa)
Format: biochemical
Details: for % of activity: controls = 100%
Protocol: The following test then allows to measure the inhibition of tyrosinase while dosing Dopachrome which is a coloured compound which may spectroscopically be dosed 475 nm.
In order to study the influence of some compounds on the enzymatic activity of tyrosinase, the enzymatic kinetics are achieved.
The reaction is performed at 25° C. in phosphate buffer pH7. Tyrosinase is brought together with its substrate L-Dopa. In the reaction medium it may be added the molecule to be studied.
One compares further the variation in optical density per minute of the test (in the presence of the molecule to be studied) to that of the controls (without molecule). The influence of the molecule on tyrosinase activity will be deduced. The results are then expressed as a percentage of activity knowing that the controls show 100% activity.
Appearance of Dopachrome at 475 nm is followed for 3 minutes.

% of inhibition (tested concentration 10 mg/ml) | % of activity (tested concentration 10 mg/ml) | Structure (SMILES) | % of inhibition (tested concentration 1 mg/ml) | % of activity (tested concentration 1 mg/ml) | % of inhibition (tested concentration 4 mg/ml) | % of activity (tested concentration 4 mg/ml) | % of inhibition (tested concentration 8 mg/ml) | % of activity (tested concentration 8 mg/ml) | % of inhibition (tested concentration 16 mg/ml) | % of activity (tested concentration 16 mg/ml)
– | – | CCCCCCCCCCCCCCCC(=O)OC[C@H](O)[C@H]1OC(=O)C(O)=C1O [Ascorbyl Palmitate] | 66% | 34% | – | – | – | – | – | –
– | – | Oc1ccc(O)cc1 [Hydroquinone] | – | – | 0% | 241.9% | 0% | 229.41% | 0% | 112.53%
80% | 20% | O=c1cc(CO)occ1O [Kojic acid] | 71% | 29% | – | – | – | – | – | –
